How the values were obtained:
[1] = tested on: beet armyworm (BAW; Spodoptera exigua: Lepidoptera); assay: 128-well diet tray assay on beet armyworm (BAW 50); type: in vivo; conditions: 128-well diet tray assay, 50 μg/cm^2 of test compound on diet, second instar BAW larvae, mortality class
Summary of the method: (§1)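 HTS: eggs on diet topped with 12 μg cpd/well; dark, 29° C; mortality day 6; mean of 6 reps. Tray: 3–5 L2 larvae/well; diet dosed 50 μg/cm^2; 25° C, 14:10 L:D; 6 d; mean of 8 wells. Scored as ≥50% mortality or not.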

[2] = tested on: beet armyworm (BAW; Spodoptera exigua: Lepidoptera); assay: 96-well microtiter plate-based high throughput (HTS) diet bioassay on beet armyworm (BAW HTS); type: in vivo; conditions: BAW eggs, 12 μg test compound per well, mortality at 6 d post-treatment, mortality class
Summary of the method: as §1

[3] = 96-well microtiter plate HTS diet assay

Row | Structure (SMILES) | BAW 50 ug/cm2 [1] | BAW HTS ([2]; 96-well HTS diet bioassay) | BAW HTS [2, 3] | BAW HTS ([2]; 96-well HTS diet assay) | pest or weed control at 50 µg/cm2, 50 µg/cm2 ([1]; Spodoptera exigua, 144 h, read-out: BAW 50 ug/cm2) [%] | pest or weed control at 12 µg/well, 12 µg/well ([2]; Spodoptera exigua, 144 h, 96-well HTS diet assay, read-out: BAW HTS) [%]
1 | CCOC1C(OC)C(C)OC(ON=Cc2ccc(-c3ncn(-c4ccc(C(F)(F)F)nc4)n3)cc2)C1OC (stereo not shown) [Compound 121] | A (the compound was tested and at least 50 percent mortality was observed) | B (either (1) the compound was tested and less than 50 percent mortality was observed or (2) the compound was not tested) | B (either (1) the compound was tested and less than 50 percent mortality was observed or (2) the compound was not tested) |  |  | 
2 | CCOC1C(OC)C(C)OC(ON=Cc2ccc(-c3ncn(-c4ccc(OC(F)(F)F)cc4)n3)cn2)C1OC (stereo not shown) [Compound 123] | A (the compound was tested and at least 50 percent mortality was observed) | B (either (1) the compound was tested and less than 50 percent mortality was observed or (2) the compound was not tested) | B (either (1) the compound was tested and less than 50 percent mortality was observed or (2) the compound was not tested) |  |  | 
3 | CCOC1C(OC)C(C)OC(ON=Cc2ccc(-c3ncn(-c4ccc(OC(F)(F)C(F)(F)Br)cc4)n3)cc2)C1OC (stereo not shown) [Compound 124] | A (the compound was tested and at least 50 percent mortality was observed) | B (either (1) the compound was tested and less than 50 percent mortality was observed or (2) the compound was not tested) | B (either (1) the compound was tested and less than 50 percent mortality was observed or (2) the compound was not tested) |  |  | 
4 | CCOc1ccc(-n2cnc(-c3ccc(C=NOC4OC(C)C(OC)C(OCC)C4OC)cc3)n2)cc1 (stereo not shown) [Compound 125] | A (the compound was tested and at least 50 percent mortality was observed) | B (either (1) the compound was tested and less than 50 percent mortality was observed or (2) the compound was not tested) | B (either (1) the compound was tested and less than 50 percent mortality was observed or (2) the compound was not tested) |  |  | 
5 | CCOC1C(OC)C(C)OC(ON=Cc2ccc(-c3ncn(-c4ccc(C#N)cc4)n3)cc2)C1OC (stereo not shown) [Compound 126] | A (the compound was tested and at least 50 percent mortality was observed) | B (either (1) the compound was tested and less than 50 percent mortality was observed or (2) the compound was not tested) | B (either (1) the compound was tested and less than 50 percent mortality was observed or (2) the compound was not tested) |  |  | 
6 | CCOC1C(OC)C(C)OC(ON=Cc2ccc(-c3ncn(-c4ccc([N+](=O)[O-])cc4)n3)cc2)C1OC (stereo not shown) [Compound 127] | A (the compound was tested and at least 50 percent mortality was observed) | B (either (1) the compound was tested and less than 50 percent mortality was observed or (2) the compound was not tested) | B (either (1) the compound was tested and less than 50 percent mortality was observed or (2) the compound was not tested) |  |  | 
7 | CCOC1C(OC)C(C)OC(ON=Cc2ccc(-c3nc(-c4ccc(OC(F)(F)F)cc4)ns3)cc2)C1OC (stereo not shown) [Compound 128] | A (the compound was tested and at least 50 percent mortality was observed) | B (either (1) the compound was tested and less than 50 percent mortality was observed or (2) the compound was not tested) | B (either (1) the compound was tested and less than 50 percent mortality was observed or (2) the compound was not tested) |  |  | 
8 | CCOC1C(OC)C(C)OC(ON=Cc2ccc(-c3nsc(-c4ccc(OC(F)(F)F)cc4)n3)cc2)C1OC (stereo not shown) [Compound 129] | A (the compound was tested and at least 50 percent mortality was observed) | B (either (1) the compound was tested and less than 50 percent mortality was observed or (2) the compound was not tested) | B (either (1) the compound was tested and less than 50 percent mortality was observed or (2) the compound was not tested) |  |  | 
9 | COC1C(C)OC(ON=Cc2ccc(-n3nnc(-c4ccc(C(F)(F)F)cc4)n3)cc2)C(OC)C1OC (stereo not shown) [Compound 131] | B (either (1) the compound was tested and less than 50 percent mortality was observed or (2) the compound was not tested) |  | B (either (1) the compound was tested and less than 50 percent mortality was observed or (2) the compound was not tested) | B (either (1) the compound was tested and less than 50 percent mortality was observed or (2) the compound was not tested) |  | 
10 | CO[C@@H]1[C@@H](OC)[C@H](C)O[C@@H](O/N=C/c2ccc(-c3ccnc(-c4ccc(OC(F)(F)F)cc4)c3)cc2)[C@@H]1OC [Compound 132] | A (the compound was tested and at least 50 percent mortality was observed) |  | B (either (1) the compound was tested and less than 50 percent mortality was observed or (2) the compound was not tested) |  | > 50 | < 50
11 | COC1C(C)OC(ON=Cc2ccc(-c3cc(-c4ccc(OC(F)(F)F)cc4)ccn3)cc2)C(OC)C1OC (stereo not shown) [Compound 133] | A (the compound was tested and at least 50 percent mortality was observed) |  | B (either (1) the compound was tested and less than 50 percent mortality was observed or (2) the compound was not tested) | B (either (1) the compound was tested and less than 50 percent mortality was observed or (2) the compound was not tested) |  | 
12 | COC1C(C)OC(ON=Cc2ccc(-c3cccc(-c4ccc(OC(F)(F)F)cc4)n3)cc2)C(OC)C1OC (stereo not shown) [Compound 134] | A (the compound was tested and at least 50 percent mortality was observed) |  | B (either (1) the compound was tested and less than 50 percent mortality was observed or (2) the compound was not tested) | B (either (1) the compound was tested and less than 50 percent mortality was observed or (2) the compound was not tested) |  | 
13 | COC1C(C)OC(ON=Cc2ccc(-c3cncc(-c4ccc(OC(F)(F)F)cc4)c3)cc2)C(OC)C1OC (stereo not shown) [Compound 135] | A (the compound was tested and at least 50 percent mortality was observed) |  | B (either (1) the compound was tested and less than 50 percent mortality was observed or (2) the compound was not tested) | B (either (1) the compound was tested and less than 50 percent mortality was observed or (2) the compound was not tested) |  | 
14 | COC1C(C)OC(ON=Cc2ccc(-c3ncc(-c4ccc(OC(F)(F)F)cc4)cn3)cc2)C(OC)C1OC (stereo not shown) [Compound 136] | A (the compound was tested and at least 50 percent mortality was observed) |  | B (either (1) the compound was tested and less than 50 percent mortality was observed or (2) the compound was not tested) | B (either (1) the compound was tested and less than 50 percent mortality was observed or (2) the compound was not tested) |  | 
15 | COC1C(C)OC(ON=Cc2ccc(-c3cnc(-c4ccc(OC(F)(F)F)cc4)nc3)cc2)C(OC)C1OC (stereo not shown) [Compound 137] | A (the compound was tested and at least 50 percent mortality was observed) |  | B (either (1) the compound was tested and less than 50 percent mortality was observed or (2) the compound was not tested) | B (either (1) the compound was tested and less than 50 percent mortality was observed or (2) the compound was not tested) |  | 
16 | COC1C(C)OC(ON=Cc2ccc(-c3nccc(-c4ccc(OC(F)(F)F)cc4)n3)cc2)C(OC)C1OC (stereo not shown) [Compound 138] | A (the compound was tested and at least 50 percent mortality was observed) |  | A (the compound was tested and at least 50 percent mortality was observed) | A (the compound was tested and at least 50 percent mortality was observed) |  | 
17 | COC1C(C)OC(ON=Cc2ccc(-c3ccnc(-c4ccc(OC(F)(F)F)cc4)n3)cc2)C(OC)C1OC (stereo not shown) [Compound 139] | A (the compound was tested and at least 50 percent mortality was observed) |  | A (the compound was tested and at least 50 percent mortality was observed) | A (the compound was tested and at least 50 percent mortality was observed) |  | 
18 | COC1C(C)OC(ON=Cc2ccc(-c3cc(-c4ccc(OC(F)(F)F)cc4)ncn3)cc2)C(OC)C1OC (stereo not shown) [Compound 140] | A (the compound was tested and at least 50 percent mortality was observed) |  | B (either (1) the compound was tested and less than 50 percent mortality was observed or (2) the compound was not tested) | B (either (1) the compound was tested and less than 50 percent mortality was observed or (2) the compound was not tested) |  | 
19 | CO[C@@H]1[C@@H](OC)[C@H](C)O[C@@H](O/N=C/c2ccc(-c3ncc(-c4ccc(OC(F)(F)C(F)(F)F)cc4)cn3)cc2)[C@@H]1OC [Compound 141] | A (the compound was tested and at least 50 percent mortality was observed) |  | A (the compound was tested and at least 50 percent mortality was observed) | A (the compound was tested and at least 50 percent mortality was observed) |  | 
20 | CCOC1C(OC)C(C)OC(ON=Cc2ccc(-c3ncc(-c4ccc(OC(F)(F)C(F)(F)F)cc4)cn3)cc2)C1OC (stereo not shown) [Compound 142] | A (the compound was tested and at least 50 percent mortality was observed) |  | A (the compound was tested and at least 50 percent mortality was observed) | A (the compound was tested and at least 50 percent mortality was observed) |  | 

— patent US8178658B2 (Dow AgroSciences, LLC, priority 2008, dated 2012)
